Test results reported in patent publication US8710231B2, “Inhibitor of casein kinase 1delta and casein kinase 1E” (Pharmadesign, Inc., priority 2010, dated 2014).

Assays:
[1] = Solubility of each compound in a DMSO solution; assay type: physicochemical
From the text: In terms of the solubility of each compound in a DMSO solution, a comparison was made among the compound represented by the Formula (2), the compounds represented by the formulae (11) and (14), and a compound in which a halogen atom or the like has not been introduced into the thiophene ring of the compound of the formula (2) (4-((6-methoxy-3-pyridinyl)methylene)-2-(2-thienyl)-5(4H)-oxazolone). The compound represented by the formula (2) and the compounds represented by the formulae (11) and (14) were easily dissolved in final concentrations of 35 mM, 10 mM and 20 mM, respectively, in the DMSO solution. On the other hand, the compound in which a halogen atom or the like has not been introduced into the thiophene ring of the compound of the formula (2) was dissolved in a final concentration of 10 mM in the DMSO solution by being intensively stirred.

rats [2] = test: Rat circadian rhythm disorder model (momentum and non-REM sleep under LD conditions); assay type: in vivo; details: for momentum / non-REM sleep amount: 60 mg/kg intraperitoneal immediately before dark period, vs untreated rats
Method: Specifically, rats were acclimatized for one or more weeks under light/dark (LD) conditions consisting of a light period for 12 hours and a dark period for 12 hours. Immediately before the beginning of the dark period, the compound represented by the formula (11) was mixed with a solubilizing agent, and the mixture was intraperitoneally administered to each rat at a dose of 60 mg/kg. […] On the other hand, with regard to a compound in which as halogen group or the like had not been introduced into the thiophene ring of the compound represented by the formula (2) ((4-((6-methoxy-3-pyridinyl)methylene)-2-(2-thienyl)-5(4H)-oxazolone)), the same test as described above was carried out.

[3] = target: T1, human recombinant casein kinase 1δ (Homo sapiens, UniProt P48730); test: Casein kinase 1δ inhibition, Z'-LYTE Ser/Thr 11 Peptide assay; assay type: biochemical; details: 0.3 μg/ml compound; for inhibition at 0.3 µg/mL: 20 μM ATP, 3.0 or 1.0 μg/ml enzyme, formula (2) high-purity from Scheme 2, read-out: Casein kinase 1δ inhibition percentage
T1 construct: purchased INVITROGEN PV3665
T1 sequence (P48730 whole entry): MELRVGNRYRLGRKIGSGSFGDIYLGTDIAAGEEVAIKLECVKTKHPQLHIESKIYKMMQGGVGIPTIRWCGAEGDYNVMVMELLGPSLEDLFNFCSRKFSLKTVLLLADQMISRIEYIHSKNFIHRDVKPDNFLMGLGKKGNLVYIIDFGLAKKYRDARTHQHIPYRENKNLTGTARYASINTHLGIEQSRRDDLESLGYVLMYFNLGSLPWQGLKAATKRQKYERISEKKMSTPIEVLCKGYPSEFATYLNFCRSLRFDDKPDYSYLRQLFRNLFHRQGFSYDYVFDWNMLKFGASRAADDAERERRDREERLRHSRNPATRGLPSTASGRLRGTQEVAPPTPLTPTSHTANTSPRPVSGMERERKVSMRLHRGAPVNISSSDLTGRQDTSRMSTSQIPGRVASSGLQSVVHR
Method: (§1) The activity of the present compound to inhibit casein kinase 1δ and casein kinase 1ε was measured using human recombinant casein kinase 1δ (INVITROGEN; Cat No. PV3665) or human recombinant casein kinase 1ε (INVITROGEN; Cat No. PV3500) as an enzyme source, and also using Z′-LYTE Ser/Thr 11 Peptide (INVITROGEN; Cat No. PV3671) as a phosphorylation substrate. The composition (final concentration) applied during each inhibitory activity measurement assay is as follows.
Assay for Casein Kinase 1δ
3.0 μg/ml or 1.0 μg/ml casein kinase 1δ, 0.3 μg/ml the present compound, 1.0 μM Peptide, 20 μM ATP, 50 mM HEPES (pH 7.4), 10 mM MgCl2, 0.01% Brij-35, and 0.5% DMSO
(§2) The present compound was previously allowed to react with the enzyme at room temperature, for 15 minutes. Two hours later, the remaining phosphorylation activity was measured using Z′-LYTE Kinase Assay Kit-Ser/Thr 11 Peptide (INVITROGEN; Cat No. PV3670).
(§3) The inhibition percentage of the present compound against the phosphotylation activity of each of casein kinase 1δ and casein kinase 1ε to which the present compound had not been added, was calculated.

[4] = test system: various types of kinases (MAPKAPK2, AurA, PKCζ, RSK1, PRAK, Erk1, PKD2, CHK1, ABL, FYN, LYN, CHK2, MET, LCK, SRC, GSK3β, Erk2, PKA, AKT2, INSR, p38α, AKT1 …); test: Inhibitory specificity to various types of kinases, Profiler Pro kit; assay type: biochemical; details: final concentration of 10 μM, 1 μM or 0.1 μM; reacted 15 minutes
Method: The inhibitory specificity of the casein kinase 1δ to and casein kinase 1ε inhibiting compounds to various types of kinases can be examined using Profiler Pro kit (manufactured by Caliper Life Sciences) in accordance with the method described in an instruction manual included therewith. The compounds represented by the formulae (2), (11) and (14) were each allowed to react with various types of kinases for 15 minutes, resulting in the final concentration of 10 μM, 1 μM or 0.1 μM. After completion of the reaction, enzyme activity was examined.

[5] = target: T2, human recombinant casein kinase 1ε (Homo sapiens, UniProt P49674); test: Casein kinase 1ε inhibition, Z'-LYTE Ser/Thr 11 Peptide assay; assay type: biochemical; details: 0.3 μg/ml compound; for inhibition at 0.3 µg/mL: 20 μM ATP, 0.5 μg/ml enzyme, formula (2) high-purity from Scheme 2, read-out: Casein kinase1ε inhibition percentage
T2 construct: purchased INVITROGEN PV3500
T2 sequence (P49674 whole entry): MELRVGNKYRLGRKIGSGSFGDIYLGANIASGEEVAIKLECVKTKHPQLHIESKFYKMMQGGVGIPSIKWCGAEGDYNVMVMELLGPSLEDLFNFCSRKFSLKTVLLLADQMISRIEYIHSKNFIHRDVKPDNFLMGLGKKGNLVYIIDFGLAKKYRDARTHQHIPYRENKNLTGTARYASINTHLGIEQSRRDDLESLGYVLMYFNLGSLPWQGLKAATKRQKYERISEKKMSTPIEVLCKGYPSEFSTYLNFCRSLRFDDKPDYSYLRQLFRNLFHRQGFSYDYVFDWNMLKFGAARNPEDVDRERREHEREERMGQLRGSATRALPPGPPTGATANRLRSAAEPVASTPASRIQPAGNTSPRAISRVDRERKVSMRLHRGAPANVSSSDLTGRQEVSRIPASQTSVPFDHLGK
Method: as §1
Assay for Casein Kinase 1ε
0.5 μg/ml casein kinase 1ε, 0.3 μg/ml the present compound, 1.0 μM Peptide, 20 μM ATP, 50 mM HEPES (pH 7.4), 10 mM MgCl2, 0.01% Brij-35, and 0.5% DMSO
as §2, §3

[6] = target: Dual specificity tyrosine-phosphorylation-regulated kinase 1A (DYRK1A) (Homo sapiens, UniProt Q13627); test: DYRK1A inhibition, Profiler Pro kit method; assay type: biochemical; details: compound 1 μM; read-out: DYRK1A enzyme activity inhibition percentage
From the text: As with casein kinase 1δ, this DYRK1A has been known as a candidate kinase for phosphorylating tau proteins, and also as a kinase for controlling circadian rhythm.

[7] = target: T3, human recombinant casein kinase 1δ (substrate human recombinant tau) (Homo sapiens, UniProt P48730); test: Casein kinase 1δ inhibition with tau as substrate (Phos-tag Western blotting); assay type: biochemical; details: compound 25 μM to 1 μM, 200 μM ATP, vs reaction solution without compound
T3 construct: purchased Carna Biosciences 03-103
T3 sequence (P48730 whole entry): as the sequence (P48730 whole entry) above
Method: The activity of the present compound to inhibit casein kinase 1δ having tau as a substrate can be examined using human recombinant casein kinase 1δ (Carna Biosciences; Cat No. 03-103) as an enzyme source and also using human recombinant tau (Sigma-Aldrich; Cat No. T0576) as a phosphorylation substrate. The composition (final concentration) applied during the inhibitory activity measurement assay is as follows.
25 μg/ml casein kinase 1δ, 10 μg/ml tau, the present compound (25 μM to 1 μM), 200 μM ATP, 50 mM HEPES (pH7.4), 10 mM MgCl2, 0.01% Brij-35, 200 μM Na3VO4, and 0.25% DMSO
The present compound has previously been allowed to react with the enzyme at room temperature for 15 minutes, and tau is then added to the reaction product. Thereafter, a phosphorylation reaction is carried out for 2 hours. After completion of the phosphorylation reaction, the reaction solution is subjected to Western blotting, so that the phosphorylation of the human recombinant tau transcribed on a PVDF membrane is detected using Phos-tag (NARD Institute, Ltd.; Cat No. BTL-104) according to a chemiluminescence method (ECL Plus; GE Healthcare; Cat No. RPN2132). The PVDF membrane after detection of the phosphorylation reaction is deprobed in accordance with the protocols of the Phos-tag, and thereafter, a total tau protein content can be detected by an antibody reaction. […]

[8] = test system: pancreatic cancer cell line transplanted into the subcutis of a mouse; details: subcutaneous transplant; cited from earlier work
[9] = test system: N2A cells (N2A-APP695 cells); details: N2A-APP695 cells excessively expressing constitutively active casein kinase 1ε; cited from earlier work
[10] = test system: human pancreatic cancer cell line; details: added in vitro; cited from earlier work
rats [11] = details: subcutaneous administration; cited from earlier work
p38α = p38α (Homo sapiens, UniProt Q16539); details: cited from earlier work
Chain of p38α (Q16539 whole entry): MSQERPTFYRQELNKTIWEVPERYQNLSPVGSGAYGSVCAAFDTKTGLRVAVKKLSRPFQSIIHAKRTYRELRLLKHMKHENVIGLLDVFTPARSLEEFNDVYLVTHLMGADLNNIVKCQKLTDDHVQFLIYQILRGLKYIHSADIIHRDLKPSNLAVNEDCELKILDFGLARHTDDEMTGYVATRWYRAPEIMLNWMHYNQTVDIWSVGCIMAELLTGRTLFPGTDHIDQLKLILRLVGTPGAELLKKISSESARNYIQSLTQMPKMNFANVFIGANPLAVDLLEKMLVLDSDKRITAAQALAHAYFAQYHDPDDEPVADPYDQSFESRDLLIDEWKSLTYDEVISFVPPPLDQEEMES

[12] = low-purity compound obtained by Scheme 1

| SMILES | momentum (rats [2]) | non-REM sleep amount (rats [2]) | inhibition at 0.3 µg/mL [3] | final concentration dissolved in the DMSO solution ([1]; easily dissolved) | inhibitory activity against various types of kinases causing concerns about side effects [4] | inhibition at 0.3 µg/mL [5] | inhibition at 1 µM [6] | inhibition of phosphorylation of tau by casein kinase 1δ (phosphorylation rate of tau) [7] | other results |
| --- | --- | --- | --- | --- | --- | --- | --- | --- | --- |
| COc1ccc(C=C2N=C(c3cccs3)OC2=O)cn1 [4-((6-methoxy-3-pyridinyl)methylene)-2-(2-thienyl)-5(4H)-oxazolone, reference compound] | significant reduction | increase |  |  |  |  |  |  | final concentration dissolved in the DMSO solution ([1]; dissolved by being intensively stirred): 10 mM |
| COc1ccc(/C=C2\N=C(c3ccc(F)s3)OC2=O)cn1 [Formula (2), 4-((6-Methoxy-3-pyridinyl)methylene)-2-(5-fluoro-2-thienyl)-5(4H)-oxazolone] |  |  | 83% | 35 mM | did not have significant inhibitory activity | 97.7% | 65% | significant inhibition | inhibitory activity against casein kinase 1δ [3, 12]: significant inhibitory activity; inhibitory activity against casein kinase 1ε [5, 12]: significant inhibitory activity |
| COc1ccc(/C=C2\N=C(c3ccc(Cl)s3)OC2=O)cn1 [Formula (11), 4-((6-Methoxy-3-pyridinyl)methylene)-2-(5-chloro-2-thienyl)-5(4H)-oxazolone] | statistically significant reduction | increase | 77.9% | 10 mM | did not have significant inhibitory activity | 94.8% | 78% | significant inhibition | medicinal effect compared with the compound without halogen on the thiophene ring (rats [2]; same test): significantly higher |
| COc1ccc(/C=C2\N=C(c3ccc(Br)s3)OC2=O)cn1 [Formula (14)] |  |  | 77.8% | 20 mM | did not have significant inhibitory activity | 95% | 85% |  |  |
| COc1cc(OC)c(C=C2C(O)=Nc3ccccc32)c(OC)c1 [IC261] |  |  |  |  |  |  |  |  | growth of tumor cells [8]: significant effect of suppressing the growth of tumor cells; amounts of Aβ40 and Aβ42 [9]: decreased; cell growth [10]: suppression of the cell growth |
| Nc1nccc(-c2c(-c3ccc(F)cc3)ncn2C2CCCCC2)n1 [PF-670462, 4-[3-cyclohexyl-5-(4-fluoro-phenyl)-3H-imidazol-4-yl]-pyrimidin-2-ylamine] |  |  |  |  |  |  |  |  | phase of circadian rhythm (rats [11]): significantly delayed; inhibitory action against p38α (p38α): exhibit inhibitory action |
